{"source": "patent US5852210A", "about": "“Cinnamic acid derivatives” (G. D. Searle & Co., priority 1997, dated 1998)", "key": {"[1]": {"target": "T1, Human fibrinogen receptor (αIIb β3) (Homo sapiens, UniProt P05106+P08514)", "T1 construct": "Human fibrinogen receptor (αIIb β3) was purified from outdated platelets; from tissue; host or cells: human outdated platelets", "T1 sequence (P08514 32-887 limits assumed)": "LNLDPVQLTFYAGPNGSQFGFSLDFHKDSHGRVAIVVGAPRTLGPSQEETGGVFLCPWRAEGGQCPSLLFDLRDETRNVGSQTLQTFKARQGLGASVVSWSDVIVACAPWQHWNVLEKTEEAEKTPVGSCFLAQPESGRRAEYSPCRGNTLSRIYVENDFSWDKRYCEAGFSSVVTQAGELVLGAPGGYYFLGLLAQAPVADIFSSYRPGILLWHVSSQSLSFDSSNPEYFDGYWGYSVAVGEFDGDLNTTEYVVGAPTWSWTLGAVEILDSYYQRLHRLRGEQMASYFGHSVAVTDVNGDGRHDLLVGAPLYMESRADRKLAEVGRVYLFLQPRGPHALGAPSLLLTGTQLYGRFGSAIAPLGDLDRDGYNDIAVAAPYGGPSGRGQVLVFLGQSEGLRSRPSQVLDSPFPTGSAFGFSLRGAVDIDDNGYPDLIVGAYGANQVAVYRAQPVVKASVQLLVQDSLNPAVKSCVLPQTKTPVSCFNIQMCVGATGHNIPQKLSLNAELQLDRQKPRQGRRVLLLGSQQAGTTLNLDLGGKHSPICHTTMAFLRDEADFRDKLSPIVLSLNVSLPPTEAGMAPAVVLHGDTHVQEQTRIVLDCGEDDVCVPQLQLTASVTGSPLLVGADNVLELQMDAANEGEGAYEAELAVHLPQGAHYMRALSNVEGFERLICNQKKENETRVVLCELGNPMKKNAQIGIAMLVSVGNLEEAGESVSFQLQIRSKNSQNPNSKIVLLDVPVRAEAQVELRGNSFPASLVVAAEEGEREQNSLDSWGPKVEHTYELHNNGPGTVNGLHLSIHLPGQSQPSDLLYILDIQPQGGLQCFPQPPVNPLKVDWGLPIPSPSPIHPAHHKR", "T1 sequence (P08514 891-1039 limits assumed)": "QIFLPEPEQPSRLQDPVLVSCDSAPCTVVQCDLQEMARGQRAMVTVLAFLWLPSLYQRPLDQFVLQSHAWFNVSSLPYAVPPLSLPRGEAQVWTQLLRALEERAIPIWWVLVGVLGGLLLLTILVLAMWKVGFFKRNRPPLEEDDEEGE", "T1 sequence (P05106 27-788)": "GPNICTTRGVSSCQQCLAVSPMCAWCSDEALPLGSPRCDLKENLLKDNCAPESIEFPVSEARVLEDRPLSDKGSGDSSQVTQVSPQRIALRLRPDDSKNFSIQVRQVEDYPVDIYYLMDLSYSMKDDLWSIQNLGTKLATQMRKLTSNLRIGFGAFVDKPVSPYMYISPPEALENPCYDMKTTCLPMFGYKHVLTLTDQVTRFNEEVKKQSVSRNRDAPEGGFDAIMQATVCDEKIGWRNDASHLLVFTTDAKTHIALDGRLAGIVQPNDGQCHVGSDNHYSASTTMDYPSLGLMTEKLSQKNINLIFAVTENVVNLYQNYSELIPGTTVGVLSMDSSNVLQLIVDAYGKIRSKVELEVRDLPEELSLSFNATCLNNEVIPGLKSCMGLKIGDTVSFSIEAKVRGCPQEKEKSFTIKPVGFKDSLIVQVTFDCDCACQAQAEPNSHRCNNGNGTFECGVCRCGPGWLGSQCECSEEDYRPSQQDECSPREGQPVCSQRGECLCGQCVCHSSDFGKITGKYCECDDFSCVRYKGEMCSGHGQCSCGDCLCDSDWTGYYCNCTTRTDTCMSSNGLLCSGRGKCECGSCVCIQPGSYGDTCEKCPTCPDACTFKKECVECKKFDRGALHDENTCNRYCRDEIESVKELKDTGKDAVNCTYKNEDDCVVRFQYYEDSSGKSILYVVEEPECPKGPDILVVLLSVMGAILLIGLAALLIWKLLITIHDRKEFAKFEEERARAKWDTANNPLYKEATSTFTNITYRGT", "test": "Purified IIb/IIIa receptor assay (solid phase receptor assay)", "conditions": "inhibition of binding of biotinylated human vitronectin (1 nM) to purified receptor; Table I", "summary_of_the_method": "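Platelet-purified αIIbβ3 (100 ng/well) coated overnight at 4 °C, then competed 2 h at room temperature against 1 nM biotinylated human vitronectin in TBS with 1.0 mM Ca/Mg/Mn, pH 7.4, 1% BSA; top compound 1.0×10^-4 M. Bound ligand detected by HRP anti-biotin, A450, normalized to maximum binding, four-parameter fit.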"}, "[2]": {"target": "T2, Human vitronectin receptor (αv β3) (Homo sapiens, UniProt P05106+P06756)", "T2 construct": "Human vitronectin receptor (αv β3) was purified from human placenta; from tissue; host or cells: human placenta", "T2 sequence (P06756 31-889 limits assumed)": "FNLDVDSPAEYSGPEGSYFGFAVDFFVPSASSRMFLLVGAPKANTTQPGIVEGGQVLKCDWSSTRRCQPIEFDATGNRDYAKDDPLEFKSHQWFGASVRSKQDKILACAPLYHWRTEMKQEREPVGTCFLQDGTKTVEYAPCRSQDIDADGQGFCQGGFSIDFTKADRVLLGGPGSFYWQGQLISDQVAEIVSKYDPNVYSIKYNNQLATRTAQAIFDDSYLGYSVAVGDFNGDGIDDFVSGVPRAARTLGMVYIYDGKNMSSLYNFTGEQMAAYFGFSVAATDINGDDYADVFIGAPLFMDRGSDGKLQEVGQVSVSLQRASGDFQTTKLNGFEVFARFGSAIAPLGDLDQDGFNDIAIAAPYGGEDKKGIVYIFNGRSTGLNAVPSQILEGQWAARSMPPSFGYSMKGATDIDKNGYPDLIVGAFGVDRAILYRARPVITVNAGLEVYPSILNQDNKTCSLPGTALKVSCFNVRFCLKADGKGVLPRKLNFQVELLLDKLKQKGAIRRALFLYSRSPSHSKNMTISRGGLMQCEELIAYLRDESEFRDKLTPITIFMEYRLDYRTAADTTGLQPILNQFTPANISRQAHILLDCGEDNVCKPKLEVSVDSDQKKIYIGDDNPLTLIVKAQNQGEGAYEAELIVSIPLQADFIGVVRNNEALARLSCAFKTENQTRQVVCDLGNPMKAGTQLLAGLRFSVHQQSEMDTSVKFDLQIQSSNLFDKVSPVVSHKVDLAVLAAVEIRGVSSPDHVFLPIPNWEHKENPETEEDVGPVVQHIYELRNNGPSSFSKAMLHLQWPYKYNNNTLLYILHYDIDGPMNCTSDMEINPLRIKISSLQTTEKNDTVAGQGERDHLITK", "T2 sequence (P06756 891-1048 limits assumed)": "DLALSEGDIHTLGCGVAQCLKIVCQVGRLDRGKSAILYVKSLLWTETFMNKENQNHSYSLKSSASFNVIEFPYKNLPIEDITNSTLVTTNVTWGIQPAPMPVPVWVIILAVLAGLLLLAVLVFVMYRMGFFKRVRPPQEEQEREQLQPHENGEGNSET", "T2 sequence (P05106 27-788)": "as the sequence (P05106 27-788) above", "test": "Vitronectin adhesion assay (solid phase receptor assay, αvβ3)", "format": "binding", "conditions": "inhibition of binding of biotinylated human vitronectin (1 nM) to purified receptor; Table I; read-out: AvB3 IC50", "summary_of_the_method": "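Placental αvβ3 (100 ng/well) coated in TBS with 1 mM Ca, Mg, Mn, pH 7.4, then compound competed with 1 nM biotinylated vitronectin for 2 h at room temperature (top compound concentration 1.0×10^-4 M). Bound ligand detected with HRP anti-biotin/OPD at 450 nm; values normalized to maximum binding, four-parameter curve fit.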"}}, "note": "Counter-ions that a name gives are not always drawn.", "data": [{"compound": "CC(C)COC(=O)N1CCN=C1Nc1cccc(C(=O)NCc2cccc(/C=C/C(=O)O)c2)c1", "note": "[Example 65, 3-[3-[[[[3-[[4,5-dihydro-1-[(2-methylpropoxy)carbonyl]-1H-imidazol-2-yl]amino]phenyl]carbonyl]amino]methyl]phenyl]propenoic acid, monohydrochloride hydrate]", "values": [{"measurement": "IC50", "setting": "[1]", "result": 4.95, "unit": "µM"}, {"measurement": "IC50", "setting": "[2]", "result": 12.1, "unit": "nM"}]}, {"compound": "O=C(O)/C=C/c1cccc(CNC(=O)c2cccc(NC3=NCCN3)c2)c1", "note": "[Example 67, 3-[3-[[[[3-[(4,5-dihydro-1H-imidazol-2-yl)amino]phenyl]carbonyl]amino]methyl]phenyl]propenoic acid, monohydrochloride hydrate]", "values": [{"measurement": "IC50", "setting": "[1]", "result": 12, "unit": "µM"}, {"measurement": "IC50", "setting": "[2]", "result": 2.27, "unit": "nM"}]}, {"compound": "O=C(O)/C=C/c1cccc(CNC(=O)c2cc(NC3=NCCCN3)cc(C(F)(F)F)c2)c1", "note": "[Example 69, 3-[3-[[[[3-[(1,4,5,6-tetrahydropyrimidin-2-yl)amino]-5-(trifluoromethyl)phenyl]carbonyl]amino]methyl]phenyl]propenoic acid, dihydrochloride hydrate]", "values": [{"measurement": "IC50", "setting": "[1]", "result": 38.9, "unit": "µM"}, {"measurement": "IC50", "setting": "[2]", "result": 1.78, "unit": "nM"}]}, {"compound": "O=C(O)/C=C/c1cccc(CNC(=O)c2cc(NC3=NCCN3)cc(C(F)(F)F)c2)c1", "note": "[Example 71, 3-[3-[[[[3-[(4,5-dihydro-1H-imidazol-2-yl)amino]-5-(trifluoromethyl)phenyl]carbonyl]amino]methyl]phenyl]propenoic acid, monohydrochloride hydrate]", "values": [{"measurement": "IC50", "setting": "[1]", "result": 18.5, "unit": "µM"}, {"measurement": "IC50", "setting": "[2]", "result": 1.33, "unit": "nM"}]}, {"compound": "O=C(O)/C=C/c1cccc(CNC(=O)c2cccc(Nc3ncccn3)c2)c1", "note": "[Example 73, 3-[3-[[[[3-[(2-pyrimidinyl)amino]phenyl]carbonyl]amino]methyl]phenyl]propenoic acid, trifluoroacetate salt]", "values": [{"measurement": "IC50", "setting": "[1]", "result": 66, "unit": "µM"}, {"measurement": "IC50", "setting": "[2]", "result": 20400, "unit": "nM"}]}, {"compound": "CC/C(=C\\C(=O)O)c1cccc(CNC(=O)c2cccc(NC(=N)N)c2)c1", "note": "[Example 74, 3-[3-[[[[3-[(aminoiminomethyl)amino]phenyl]carbonyl]amino]methyl]phenyl]-2E-pentenoic acid, trifluoroacetate salt hydrate]", "values": [{"measurement": "IC50", "setting": "[1]", "result": "> 100", "unit": "µM"}, {"measurement": "IC50", "setting": "[2]", "result": 2690, "unit": "nM"}]}, {"compound": "N=C(N)Nc1cccc(C(=O)NCc2cccc(C(=CC(=O)O)c3cc(Cl)cc(Cl)c3)c2)c1", "note": "[Example 75, 3-[3-[[[[3-[(aminoiminomethyl)amino]phenyl]carbonyl]amino]methyl]phenyl]-3-(3,5-dichlorophenyl) propenoic acid, trifluoroacetate salt]", "values": [{"measurement": "IC50", "setting": "[1]", "result": "> 100", "unit": "µM"}, {"measurement": "IC50", "setting": "[2]", "result": 42700, "unit": "nM"}]}, {"compound": "O=C(O)/C=C/c1ccc2c(c1)CCN2C(=O)c1cccc(NC2=NCCCN2)c1", "note": "[Example 76, 3-[2,3-dihydro-1-[[3-[(1,4,5,6-tetrahydropyrimidin-2-yl)amino]phenyl]carbonyl]-1H-indol-5-yl]propenoic acid, trifluoroacetate salt]", "values": [{"measurement": "IC50", "setting": "[1]", "result": 0.825, "unit": "µM"}, {"measurement": "IC50", "setting": "[2]", "result": 8.8, "unit": "nM"}]}, {"compound": "O=C(O)/C=C/c1ccc2c(c1)CCN2C(=O)c1cccc(NC2=NCCN2)c1", "note": "[Example 77, 3-[1-[[3-[(4,5-dihydro-1H-imidazol-2-yl)amino]phenyl]carbonyl]2,3-dihydro-1H-indol-5-yl]propenoic acid, trifluoroacetate salt]", "values": [{"measurement": "IC50", "setting": "[1]", "result": 0.231, "unit": "µM"}, {"measurement": "IC50", "setting": "[2]", "result": 12.3, "unit": "nM"}]}, {"compound": "O=C(O)/C=C/c1ccc2c(c1)CCCN2C(=O)c1cccc(NC2=NCCCN2)c1", "note": "[Example 78, 3-[1-[[3-[(1,4,5,6-tetrahydropyrimidin-2-yl)amino]phenyl]carbonyl]-1,2,3,4-tetrahydro-quinolin-6-yl]propenoic acid, trifluoroacetate salt]", "values": [{"measurement": "IC50", "setting": "[1]", "result": 1.79, "unit": "µM"}, {"measurement": "IC50", "setting": "[2]", "result": 56.3, "unit": "nM"}]}, {"compound": "N=C(N)Nc1cccc(C(=O)COc2cccc(/C=C/C(=O)O)c2)c1", "note": "[Example 79, 3-[3-[2-[3-[(aminoimino)methyl]amino]phenyl]-2-oxoethoxy]phenyl]propenoic acid, trifluoroacetate salt]", "values": [{"measurement": "IC50", "setting": "[1]", "result": 0.415, "unit": "µM"}, {"measurement": "IC50", "setting": "[2]", "result": 12, "unit": "nM"}]}, {"compound": "O=C(O)/C=C/c1cccc(OCC(=O)c2cccc(NC3=NCCN3)c2)c1", "note": "[Example 80, 3-[3-[2-[3-[(4,5-dihydro-1H-imidazol-2-yl)amino]phenyl]-2-oxoethoxy]phenyl]propenoic acid, trifluoroacetate salt]", "values": [{"measurement": "IC50", "setting": "[1]", "result": 3.47, "unit": "µM"}, {"measurement": "IC50", "setting": "[2]", "result": 1.02, "unit": "nM"}]}, {"compound": "N=C(N)Nc1cccc(C(O)CNc2cccc(/C=C/C(=O)O)c2)c1", "note": "(centres unmarked) [Example 81, 3-[3-[[2-[3-[(aminoiminomethyl)amino]phenyl]-2-hydroxyethyl]amino]phenyl]propenoic acid, (bis)trifluoroacetate salt hydrate]", "values": [{"measurement": "IC50", "setting": "[1]", "result": 5.02, "unit": "µM"}, {"measurement": "IC50", "setting": "[2]", "result": 54.3, "unit": "nM"}]}, {"compound": "O=C(O)/C=C/c1cccc(C(=O)COc2cccc(NC3=NCCN3)c2)c1", "note": "[Example 83, 3-[3-[2-[3-[(4,5-dihydro-1H-imidazol-2-yl)amino]phenoxy]acetyl]phenyl]propenoic acid, trifluoroacetate salt]", "values": [{"measurement": "IC50", "setting": "[1]", "result": 10, "unit": "µM"}, {"measurement": "IC50", "setting": "[2]", "result": 21.7, "unit": "nM"}]}, {"compound": "N=C(N)Nc1cccc(/C=C/C(=O)c2ccc(F)c(/C=C/C(=O)O)c2)c1", "note": "[Example 84, 3-[5-[3-[3-[(aminoiminomethyl)amino]phenyl]-1-oxopropenyl]-2-fluorophenyl]propenoic acid, trifluoroacetate salt]", "values": [{"measurement": "IC50", "setting": "[1]", "result": 35.2, "unit": "µM"}, {"measurement": "IC50", "setting": "[2]", "result": 891, "unit": "nM"}]}, {"compound": "O=C(O)C=Cc1cc(C(=O)C=Cc2cccc(C3=NCCCN3)c2)ccc1F", "note": "[Example 85, 3-[5-[3-[3-[(1,4,5,6-tetrahydrolpyrimidin-2-yl)]phenyl]-1-oxopropenyl]-2-fluorophenyl]propenoic acid, trifluoroacetate salt]", "values": [{"measurement": "IC50", "setting": "[1]", "result": 20.8, "unit": "µM"}, {"measurement": "IC50", "setting": "[2]", "result": 92, "unit": "nM"}]}, {"compound": "COc1ccc(/C=C/C(=O)O)cc1C(=O)/C=C/c1cccc(NC(=N)N)c1", "note": "[Example 86, 3-[3-[3-[3-[(aminoiminomethyl)amino]phenyl]-1-oxopropenyl]-4-methoxyphenyl]propenoic acid, trifluoroacetate salt]", "values": [{"measurement": "IC50", "setting": "[1]", "result": 0.563, "unit": "µM"}, {"measurement": "IC50", "setting": "[2]", "result": 580, "unit": "nM"}]}, {"compound": "COc1ccc(/C=C/C(=O)O)cc1C(=O)/C=C/c1cccc(NC2=NCCN2)c1", "note": "[Example 87, 3-[3-[3-[3-[(4,5-dihydro-1H-imidazol-2-yl)amino]phenyl]-1-oxopropenyl]-4-methoxyphenyl]propenoic acid, trifluoroacetate salt]", "values": [{"measurement": "IC50", "setting": "[1]", "result": 2.64, "unit": "µM"}, {"measurement": "IC50", "setting": "[2]", "result": 90.5, "unit": "nM"}]}, {"compound": "N=C(N)Nc1cccc(/C=C/C(=O)c2cccc(/C=C/C(=O)O)c2)c1", "note": "[Example 88, 3-[3-[3-[3-[(aminoiminomethyl)amino]phenyl]-1-oxopropenyl]phenyl]propenoic acid, trifluoroacetate salt]", "values": [{"measurement": "IC50", "setting": "[1]", "result": 2.61, "unit": "µM"}, {"measurement": "IC50", "setting": "[2]", "result": 37.3, "unit": "nM"}]}, {"compound": "N=C(N)Nc1cccc(C(=O)/C=C/c2cccc(/C=C/C(=O)O)c2)c1", "note": "[Example 89, 3-[3-[3-[3-[(aminoiminomethyl)amino]phenyl]-3-oxopropenyl]phenyl]propenoic acid, trifluoroacetate salt hydrate]", "values": [{"measurement": "IC50", "setting": "[1]", "result": 1.26, "unit": "µM"}, {"measurement": "IC50", "setting": "[2]", "result": 196, "unit": "nM"}]}, {"compound": "O=C(O)/C=C/c1cccc(C(=O)/C=C/c2cccc(NC3=NCCCN3)c2)c1", "note": "[Example 90, 3-[3-[1-oxo-3-[3-[(1,4,5,6-tetrahydropyrimidin-2-yl)amino]phenyl]-2-propenyl]phenyl]propenoic acid, trifluoroacetate salt]", "values": [{"measurement": "IC50", "setting": "[1]", "result": 2.32, "unit": "µM"}, {"measurement": "IC50", "setting": "[2]", "result": 6.98, "unit": "nM"}]}, {"compound": "N=C(N)Nc1cccc(C(=O)CCc2cccc(/C=C/C(=O)O)c2)c1", "note": "[Example 91, 3-[3-[3-[3-[(aminoiminomethyl)amino]phenyl]-3-oxopropyl]phenyl]propenoic acid, trifluoroacetate salt hydrate]", "values": [{"measurement": "IC50", "setting": "[1]", "result": 8.67, "unit": "µM"}, {"measurement": "IC50", "setting": "[2]", "result": 1270, "unit": "nM"}]}, {"compound": "N=C(N)Nc1cccc(CCC(=O)c2cccc(/C=C/C(=O)O)c2)c1", "note": "[Example 92, 3-[3-[3-[3-[(aminoiminomethyl)amino]phenyl]-1-oxopropyl]phenyl]propenoic acid, trifluoroacetate salt]", "values": [{"measurement": "IC50", "setting": "[1]", "result": 4.01, "unit": "µM"}, {"measurement": "IC50", "setting": "[2]", "result": 48.9, "unit": "nM"}]}, {"compound": "O=C(O)/C=C/c1cccc(C(=O)CCc2cccc(NC3=NCCCN3)c2)c1", "note": "[Example 93, 3-[3-[1-oxo-3-[3-[(1,4,5,6-tetrahydropyrimidin-2-yl)amino]phenyl]propyl]phenyl]propenoic acid, trifluoroacetate salt]", "values": [{"measurement": "IC50", "setting": "[1]", "result": 5.99, "unit": "µM"}, {"measurement": "IC50", "setting": "[2]", "result": 6.1, "unit": "nM"}]}, {"compound": "O=C(O)/C=C/c1cccc(/C=C/C(=O)c2cccc(NC3=NCCCN3)c2)c1", "note": "[Example 94, 3-[3-[3-oxo-3-[3-[(1,4,5,6-tetrahydropyrimidin-2-yl)amino]phenyl]-1-propenyl]phenyl]propenoic acid, trifluoroacetate salt]", "values": [{"measurement": "IC50", "setting": "[1]", "result": 2.71, "unit": "µM"}, {"measurement": "IC50", "setting": "[2]", "result": 11.3, "unit": "nM"}]}, {"compound": "O=C(O)/C=C/c1cccc(CCC(=O)c2cccc(NC3=NCCCN3)c2)c1", "note": "[Example 95, 3-[3-[3-oxo-3-[3-[(1,4,5,6-tetrahydropyrimidin-2-yl)amino]phenyl]propyl]phenyl]propenoic acid, trifluoroacetate salt hydrate]", "values": [{"measurement": "IC50", "setting": "[1]", "result": 11.8, "unit": "µM"}, {"measurement": "IC50", "setting": "[2]", "result": 58.5, "unit": "nM"}]}, {"compound": "O=C(O)/C=C/c1ccc(/C=C/c2cccc(NC3=NCCCN3)c2)cc1", "note": "[Example 98, 3-[4-[2-[3-[(1,4,5,6-tetrahydropyrimidin-2-yl)amino]phenyl]ethenyl]phenyl]propenoic acid, trifluoroacetate salt]", "values": [{"measurement": "IC50", "setting": "[1]", "result": 0.222, "unit": "µM"}, {"measurement": "IC50", "setting": "[2]", "result": 5.08, "unit": "nM"}]}, {"compound": "O=C(O)/C=C/c1ccc(/C=C/c2cccc(NC3=NCCN3)c2)cc1", "note": "[Example 99, 3-[4-[2-[3-[(4,5-dihydro-1H-imidazol-2-yl)amino]phenyl]ethenyl]phenyl]propenoic acid, trifluoroacetate salt]", "values": [{"measurement": "IC50", "setting": "[1]", "result": 0.722, "unit": "µM"}, {"measurement": "IC50", "setting": "[2]", "result": 26.5, "unit": "nM"}]}]}
